Data as given in patent US20260028344A1, “CRYSTALLINE FORMS OF LANRAPLENIB AND METHODS OF MAKING AND USING THE SAME” (Kronos Bio, Inc., priority 2022, published 2026).

Assay: Solubility / biopharmaceutical classification (BCS) of lanraplenib
Format: physicochemical
Conditions: in physiological conditions

## Nc1cncc(-c2cn3ccnc3c(Nc3ccc(N4CCN(C5COC5)CC4)cc3)n2)n1 [Lanraplenib]
  solubility: low
